The subject of one test is Hos:HR-1 mice. Description: Preventive effect on skin cancer in ultraviolet light-irradiated hairless mice. Format: in vivo. As to conditions: 3% AMP2Na in 20% ethanol aqueous solution, 0.1 mL on the back twice a day, 5 days a week. Here is the method:
In this Example, hairless mice were irradiated with ultraviolet light, and the preventive effect of AMP2Na against photocarcinogenesis in the mice was examined.
5-week-old female Hos:HR-1 mice were purchased from Japan SLC, Inc., and from the age of 7 weeks, ultraviolet light (UV-B) irradiation was performed on their back. The ultraviolet irradiation (irradiation amount per time: 60 mJ/cm^2) was performed once a day, 5 days a week, for 12 weeks.
Then, a 20% ethanol aqueous solution containing 3% of AMP2Na dissolved therein (test solution) and a 20% ethanol aqueous solution containing no AMP2Na (base) were prepared.
After feeding the ultraviolet light-irradiated mice under normal conditions for 1 week, the mice were divided into 3 groups (6 mice in each group) under the conditions shown in Table 1, and fed for 12 weeks.
The development of tumors was determined, and the number of tumors was counted.

The subject of the next test is JB6 cells. The test is described as follows: Amount of cyclobutane pyrimidine dimers (CPD) in genomic DNA of UV-B irradiated JB6 cells, by ELISA. Format: cell-based, mouse. As to conditions: 15 mJ/cm^2 UV-B, 48 h. As to the method:
In this Example, normal mouse epidermal cells were irradiated with ultraviolet light, and then cultured in an AMP2Na-containing culture medium. Using the amount of cyclobutane pyrimidine dimers (CPD) as an index, the action of AMP2Na to reduce DNA mutation was examined.
Normal mouse epidermal cell-derived JB6 cells (purchased from ATCC) were cultured in an FBS-containing MEM culture medium until subconfluent. Subsequently, 4×10^5 cultured cells were seeded into a 3.5 cm-dish with MEM (minimum essential medium) culture medium containing FBS (fetal bovine serum). Next day after the seeding, the culture medium was replaced with a serum-free MEM culture medium for serum starvation. Subsequently, the culture medium was replaced with PBS, followed by the irradiation with 15 mJ/cm^2 of UV-B. After ultraviolet irradiation, the culture medium was replaced with serum-free MEM culture medium containing 0.01 mM, 0.1 mM, or 1 mM AMP2Na or AMP2Na-free culture-medium (control). After the replacement of the culture medium, the cells were cultured with 5% CO2 at 37° C. for 48 hours, and then collected.
Genomic DNA was extracted from the collected cells using a FastPure (trademark) DNA kit (Takara Bio Inc.). The extraction was carried out in accordance with the kit manual.
The amount of CPD in genomic DNA extracted from each cell was measured using ELISA. In particular, the extracted genomic DNA was heated at 100° C. for 10 minutes, and cooled on ice. Subsequently, genomic DNA was dispensed (50 μL/well) into a 96-well microplate coated with protamine sulfate, and dried. The following day, each of the wells was washed with PBS-T (PBS with Tween 20), and FBS-containing PBS was dispensed into each of the wells. The wells were then kept for 30 minutes at 37° C. […] Subsequently, the absorbance values at 492 nm were measured, and the amount of CPD in genomic DNA was calculated to determine the rate of change of CPD (variation in the relative amount of CPD; %) under each condition when the amount of CPD in the case of cultivation in the AMP2Na-free culture medium was assigned a value of 100%.

For the next test, the system named is caspase 3. Description: Caspase 3 activity in human epidermal keratinocytes treated with AMP2Na, with or without UV-B irradiation. Format: cell-based. The text has this:
The present Example examined a change in the caspase activity when human epidermal cells treated with disodium adenosine 5′-monophosphate (AMP2Na) were irradiated with ultraviolet light.
Human epidermal keratinocytes (purchased from Kurabo Industries Ltd.) were precultured using EpiLife-KG2 culture medium (produced by Kurabo Industries Ltd.) in 10 cm collagen-coated petri dishes (produced by Asahi Glass Co., Ltd.), and seeded at a density of 30,000 cells/well into a collagen-coated 96-well microplate. After cultivation in the EpiLife-KG2 culture medium for 8 hours, the culture medium was replaced with EpiLife culture medium (produced by Kurabo Industries Ltd.), followed by cultivation for an additional 16 hours. Subsequently, the culture medium was replaced with AMP2Na-containing culture medium adjusted to various concentrations. […] Subsequently, the activity of caspase 3 expressed in the cells were measured using a SensoLyte™ Rh110 Caspase 3 Assay Kit (produced by AnaSpec, Inc.). […] Further, in order to examine influences that AMP2Na affect the caspase activity of normal cells, caspase activity of the cells that were not irradiated with UV-B but treated with AMP2Na was determined. […]

Where [1] appears, read: 6th week from start of application.

Structures are written as SMILES.

With `Nc1ncnc2c1ncn2[C@@H]1O[C@H](COP(=O)([O-])[O-])[C@@H](O)[C@H]1O.[Na+].[Na+]` [AMP2Na, disodium adenosine 5′-monophosphate], the “average number of tumors developed per mouse” value in the test on Hos:HR-1 mice (setting [1]) is on record as 0. For the same compound, the “tumor formation on the back of the mice” value in the test with Hos:HR-1 mice (setting [1]) is on record as “not in the test solution-applied group”. The tumor incidence with Hos:HR-1 mice (setting [1]) is listed as 0%; in the test on Hos:HR-1 mice (12th week from start of application), 17%. For the same compound, the “relative amount of CPD” value in the test on JB6 cells (then 0.1 mM AMP2Na, versus control) is “decrease in the relative amount of CPD compared to the control group was significant”; in the test with JB6 cells (then 1 mM AMP2Na, versus control), “decrease in the relative amount of CPD compared to the control group was significant”; with JB6 cells (then AMP2Na added (0.01, 0.1 or 1 mM), AMP2Na-free control = 100%), “decreased compared to the control group”. In addition, the caspase activity result in the test with caspase 3 (human epidermal keratinocytes pretreated 2 h with AMP2Na, then 30 mJ/cm^2 UV-B, measured after 6 h cultivation) is given as “significant increase in the caspase activity”; with caspase 3 (non-ultraviolet-irradiated human epidermal keratinocytes, 2 h treatment with AMP2Na-containing medium at various concentrations), “almost no increase in the caspase activity”.

These data come from patent publication US9125928B2, “Agent for suppressing the formation of abnormal skin cells caused by exposure to light” (OTSUKA PHARMACEUTICAL CO., LTD., priority 2010, dated 2015).
